Test results taken from patent US9382254B2, “Compounds and pharmaceutical compositions thereof for the treatment of cystic fibrosis” (Galapagos NV, priority 2013, dated 2016).

Columns and labels:
CFTR G551D mutant = target: T1, CFTR G551D mutant (Homo sapiens, UniProt P13569, G551D); assay: YFP-halide influx assay for the CFTR-G551D mutation; format: cell-based; conditions: HEK293 cells, forskolin 10.67 μM
T1 construct: expressed in transfected cells; host or cells: HEK293 (reverse transfection with plasmid)
Excerpt: The YFP halide influx assay measures the functionality of the cystic fibrosis Transmembrane Conductance regulator (CFTR) channels. The assay is used to evaluate the capacity of compounds to increase the channel opening of existing mutant CFTR channels in the membrane. It makes use of the observation that the yellow fluorescent protein (YFP) variant YFP H148Q, I152L, […] has its fluorescence substantially quenched by halide ions like Cl^− and I^−. (Galietta, Haggie, & Verkman, 2001)
For this purpose, HEK293-cells are seeded in 96 well plates. During seeding, the cells are reverse-transfected with plasmid vectors that direct the expression of the CFTR G551D mutant and of the YFP reporter. Cells are incubated at 37° C., 5% CO2 for 24 hours so as to allow for sufficient expression of the CFTR protein.
(§1) The I^−-induced quenching of fluorescence is recorded immediately after injection of I^− for 7 seconds. The capacity of a compound to increase the channel opening is directly correlated with the decrease in fluorescence, and is expressed as (1-(fluorescence after 7 seconds (F)/fluorescence before injection (F0))) and an EC50 can be derived from a (1-F/F0) vs compound concentration plot.

CFTR ΔF508 mutant = target: T2, CFTR ΔF508 mutant (Homo sapiens, UniProt P13569, DEL508-508); assay: YFP-halide influx assay for the CFTR-ΔF508 mutation (384 well, FDSS/μCell); format: cell-based; conditions: CFBE41o- cells, CFTR-ΔF508, 1×D-PBS, fluorescence after 36 seconds
T2 construct: expressed in transfected cells; host or cells: CFBE41o- (adenoviral transduction)
Excerpt: The YFP halide influx assay measures the functionality of the cystic fibrosis Transmembrane Conductance regulator (CFTR) channels in the cystic fibrosis bronchial epithelium cell line CFBE41o-. The assay is used to evaluate the capacity of compounds to increase the open probability of existing CFTR channels in the membrane. It makes use of the observation that the yellow fluorescent protein (YFP) variant YFP H148Q, I152L has its fluorescence substantially quenched by halide ions like Cl— and I—. (Galietta, Haggie, & Verkman, 2001) (Nagai, et al., 2002)
For this purpose, CFBE41o-cells are seeded in 384 well plates (3000 CFBE cells/well). One day after seeding, the CFBE cells are transduced with adenoviral vectors that direct the expression of the CFTR ΔF508 mutant and of the YFP reporter. Cells are incubated at 27° C., 5% CO2 for 24 hours so as to allow for the proper folding and migration to the membrane of the CFTR channel or treated with a CFTR modulator during 24 h at 37° C.
as §1, with “I— induced” for “I^−-induced”, “recorded […]” for “recorded”, “I—” for “I^−”, “2 min on an FDSS/μCell (Hamamatsu).” for “7 seconds.”, “36” for “7”

T1 sequence (P13569 whole entry G551D): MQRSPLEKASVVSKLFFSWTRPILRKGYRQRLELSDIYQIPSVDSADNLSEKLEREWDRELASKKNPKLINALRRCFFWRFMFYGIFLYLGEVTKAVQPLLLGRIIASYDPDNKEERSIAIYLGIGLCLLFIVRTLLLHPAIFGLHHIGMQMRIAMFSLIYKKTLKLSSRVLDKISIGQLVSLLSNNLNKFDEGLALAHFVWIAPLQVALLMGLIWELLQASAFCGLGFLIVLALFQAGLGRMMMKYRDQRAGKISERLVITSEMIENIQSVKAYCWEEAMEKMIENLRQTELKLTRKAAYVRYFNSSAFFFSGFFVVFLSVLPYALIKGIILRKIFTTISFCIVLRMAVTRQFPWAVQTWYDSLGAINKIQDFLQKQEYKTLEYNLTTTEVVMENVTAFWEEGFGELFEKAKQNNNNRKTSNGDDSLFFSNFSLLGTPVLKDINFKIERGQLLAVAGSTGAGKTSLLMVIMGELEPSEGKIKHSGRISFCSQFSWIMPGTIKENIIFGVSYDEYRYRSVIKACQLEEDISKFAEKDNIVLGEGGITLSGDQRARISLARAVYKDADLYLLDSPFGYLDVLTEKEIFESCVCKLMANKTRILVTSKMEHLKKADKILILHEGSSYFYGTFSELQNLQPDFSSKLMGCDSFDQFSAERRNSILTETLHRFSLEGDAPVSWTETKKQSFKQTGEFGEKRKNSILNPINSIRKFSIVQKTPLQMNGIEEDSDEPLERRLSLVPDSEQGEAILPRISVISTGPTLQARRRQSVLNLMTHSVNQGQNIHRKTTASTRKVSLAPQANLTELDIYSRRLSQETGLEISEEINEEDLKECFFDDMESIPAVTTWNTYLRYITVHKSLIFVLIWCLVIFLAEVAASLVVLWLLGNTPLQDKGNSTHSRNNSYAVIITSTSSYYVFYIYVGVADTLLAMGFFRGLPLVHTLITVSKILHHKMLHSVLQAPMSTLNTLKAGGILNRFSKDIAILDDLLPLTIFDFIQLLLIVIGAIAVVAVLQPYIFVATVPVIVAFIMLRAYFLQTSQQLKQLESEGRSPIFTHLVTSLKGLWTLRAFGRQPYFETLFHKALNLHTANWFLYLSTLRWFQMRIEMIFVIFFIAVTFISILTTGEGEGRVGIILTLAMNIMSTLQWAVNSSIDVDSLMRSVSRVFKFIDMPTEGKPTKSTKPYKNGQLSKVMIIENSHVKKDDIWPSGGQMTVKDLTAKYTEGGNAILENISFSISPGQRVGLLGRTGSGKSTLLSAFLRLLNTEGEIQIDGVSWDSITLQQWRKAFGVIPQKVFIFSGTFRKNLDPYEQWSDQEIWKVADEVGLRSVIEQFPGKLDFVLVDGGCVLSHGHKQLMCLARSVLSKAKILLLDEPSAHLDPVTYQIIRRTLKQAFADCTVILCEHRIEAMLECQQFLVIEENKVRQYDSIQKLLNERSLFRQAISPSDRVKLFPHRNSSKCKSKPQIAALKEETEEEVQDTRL
T2 sequence (P13569 with tags, fused parts or gaps DEL508-508): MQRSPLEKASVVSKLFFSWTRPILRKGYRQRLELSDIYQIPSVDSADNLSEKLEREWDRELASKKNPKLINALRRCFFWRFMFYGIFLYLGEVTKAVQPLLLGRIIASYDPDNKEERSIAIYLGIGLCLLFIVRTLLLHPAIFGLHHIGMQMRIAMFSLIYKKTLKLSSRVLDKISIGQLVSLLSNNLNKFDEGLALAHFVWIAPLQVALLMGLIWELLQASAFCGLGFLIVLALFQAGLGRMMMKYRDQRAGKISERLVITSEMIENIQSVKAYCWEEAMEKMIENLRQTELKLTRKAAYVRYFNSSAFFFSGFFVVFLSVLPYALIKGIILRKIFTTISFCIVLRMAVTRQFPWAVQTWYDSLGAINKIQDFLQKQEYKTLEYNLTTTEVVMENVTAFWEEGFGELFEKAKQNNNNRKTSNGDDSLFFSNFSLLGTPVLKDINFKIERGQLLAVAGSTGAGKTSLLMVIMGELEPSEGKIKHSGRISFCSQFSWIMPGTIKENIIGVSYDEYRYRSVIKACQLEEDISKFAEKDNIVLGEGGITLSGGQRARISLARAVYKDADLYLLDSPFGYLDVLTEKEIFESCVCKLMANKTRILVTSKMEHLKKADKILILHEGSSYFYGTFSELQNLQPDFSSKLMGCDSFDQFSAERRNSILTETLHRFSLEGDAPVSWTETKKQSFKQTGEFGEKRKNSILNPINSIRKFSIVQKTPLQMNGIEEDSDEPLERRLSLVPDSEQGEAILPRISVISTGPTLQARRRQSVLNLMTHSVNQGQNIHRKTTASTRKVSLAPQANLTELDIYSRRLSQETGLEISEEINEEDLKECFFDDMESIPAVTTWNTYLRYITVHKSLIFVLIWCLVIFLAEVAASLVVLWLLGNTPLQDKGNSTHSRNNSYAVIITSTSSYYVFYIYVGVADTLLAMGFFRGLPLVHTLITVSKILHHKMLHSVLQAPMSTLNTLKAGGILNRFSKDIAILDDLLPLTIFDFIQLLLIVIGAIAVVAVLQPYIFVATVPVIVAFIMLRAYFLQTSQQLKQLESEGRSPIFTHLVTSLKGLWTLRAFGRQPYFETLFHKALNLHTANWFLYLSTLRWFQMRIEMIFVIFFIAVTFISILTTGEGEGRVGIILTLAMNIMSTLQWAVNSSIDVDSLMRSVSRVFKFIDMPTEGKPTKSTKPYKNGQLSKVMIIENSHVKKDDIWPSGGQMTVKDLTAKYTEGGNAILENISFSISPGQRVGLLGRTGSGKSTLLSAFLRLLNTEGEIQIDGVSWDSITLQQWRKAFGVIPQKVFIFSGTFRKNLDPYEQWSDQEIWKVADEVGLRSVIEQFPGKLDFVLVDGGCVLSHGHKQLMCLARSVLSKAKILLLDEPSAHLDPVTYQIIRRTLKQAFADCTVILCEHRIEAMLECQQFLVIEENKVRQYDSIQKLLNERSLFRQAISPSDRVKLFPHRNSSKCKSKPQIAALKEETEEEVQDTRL

Row | EC50 (CFTR G551D mutant) [nM] | EC50 (CFTR ΔF508 mutant) [nM] | Structure (SMILES)
1 | 716 | 20.2 | CC(O)C(=O)Nc1sc(S(=O)(=O)c2ccc(OC(F)(F)F)cc2)cc1C(N)=O (centres unmarked) [Compound 318, 2-(2-Hydroxy-propionylamino)-5-(4-trifluoromethoxy-benzenesulfonyl)-thiophene-3-carboxylic acid amide]
2 | 2680 | 110 | CC(C)(O)C(=O)Nc1sc(S(=O)(=O)c2ccc(Cl)cc2)cc1C(N)=O [Compound 358, 5-(4-chlorophenyl)sulfonyl-2-[(2-hydroxy-2-methyl-propanoyl)amino] thiophene-3-carboxamide]
3 | 1350 | 110 | CC(O)C(=O)Nc1sc(S(=O)(=O)c2ccc(C(F)(F)F)cn2)cc1C(N)=O (centres unmarked) [Compound 396, 2-(2-hydroxypropanoylamino)-5-[[5-(trifluoromethyl)-2-pyridyl]sulfonyl] thiophene-3-carboxamide]
4 | 57.4 | 2.5 | COc1ccc(OC(F)(F)F)c(S(=O)(=O)c2cc(C(N)=O)c(NC(=O)C(C)CO)s2)c1 (centres unmarked) [Compound 370, 2-[(3-hydroxy-2-methyl-propanoyl)amino]-5-[5-methoxy-2-(trifluoromethoxy)phenyl]sulfonyl-thiophene-3-carboxamide]
5 | 873 | 66.1 | C[C@H](CO)C(=O)Nc1sc(S(=O)(=O)c2ccc(OC(F)(F)F)cc2)cc1C(N)=O [Compound 382, 2-[[(2R)-3-hydroxy-2-methyl-propanoyl]amino]-5-[4-(trifluoromethoxy)phenyl] sulfonyl-thiophene-3-carboxamide]
6 | 1900 | 56.6 | Cc1cc(C#N)cc(S(=O)(=O)c2cc(C(N)=O)c(NC(=O)C(C)(C)O)s2)c1 [Compound 399, 5-(3-cyano-5-methyl-phenyl)sulfonyl-2-[(2-hydroxy-2-methyl-propanoyl)amino] thiophene-3-carboxamide]
7 | 458 | 7.5 | C[C@H](O)C(=O)Nc1sc(S(=O)(=O)c2c(Cl)cccc2Cl)cc1C(N)=O [Compound 314, 5-(2,6-Dichloro-benzenesulfonyl)-2-((S)-2-hydroxy-propionylamino)-thiophene-3-carboxylic acid amide]
8 | 37.3 | 3 | CC(CO)C(=O)Nc1sc(S(=O)(=O)c2cc(F)ccc2OC(F)(F)F)cc1C(N)=O (centres unmarked) [Compound 351, 5-[5-fluoro-2-(trifluoromethoxy)phenyl] sulfonyl-2-[(3-hydroxy-2-methyl-propanoyl)amino] thiophene-3-carboxamide]
9 | 3330 | 134 | C[C@@H](O)C(=O)Nc1sc(S(=O)(=O)c2ccc(F)cc2)cc1C(N)=O [Compound 327, 5-(4-fluorophenyl) sulfonyl-2-[[(2R)-2-hydroxypropanoyl]amino] thiophene-3-carboxamide]
10 | 237 | 36 | CC(C)(O)C(=O)Nc1sc(S(=O)(=O)c2ccc(C(F)(F)F)cc2)cc1C(N)=O [Compound 344, 2-[(2-hydroxy-2-methyl-propanoyl)amino]-5-[4-(trifluoromethyl)phenyl] sulfonyl-thiophene-3-carboxamide]
11 | 3330 | 241 | CC(C)(O)C(=O)Nc1sc(S(=O)(=O)c2ncccc2Cl)cc1C(N)=O [Compound 317, 5-(3-Chloro-pyridine-2-sulfonyl)-2-(2-hydroxy-2-methyl-propionylamino)-thiophene-3-carboxylic acid amide]
12 | 3330 | 107 | COCCOc1ccc(S(=O)(=O)c2cc(C(N)=O)c(NC(=O)C(C)(C)O)s2)cc1 [Compound 371, 2-[(2-hydroxy-2-methyl-propanoyl)amino]-5-[4-(2-methoxyethoxy)phenyl] sulfonyl-1-thiophene-3-carboxamide]
13 | 1730 | 32.1 | CC(C)(O)C(=O)Nc1sc(S(=O)(=O)c2cccnc2C(F)(F)F)cc1C(N)=O [Compound 436, 2-[(2-hydroxy-2-methyl-propanoyl)amino]-5-[[2-(trifluoromethyl)-3-pyridyl]sulfonyl] thiophene-3-carboxamide]
